Assay results published in US7998985B2, “1,5-diphenyl-3-pyridinylamino-1,5-dihydropyrrolidin-2-one as CB1 receptor modulator” (Eli Lilly and Company, priority 2006, dated 2011).

Tests used:
[1] = tested on: alcohol-preferring (P) rats; assay: 12-hour ethanol consumption in alcohol-preferring rats (P rats); format: in vivo, rat; settings: female P rats, 15% (v/v) ethanol, continuous free access; Example 2 given p.o.
Excerpt: Evaluate Example 2 for its ability to reduce consumption of ethanol in rats selectively bred for high oral ethanol intake (P rats). In addition, study the effects of Example 2 under conditions in which effects of the compound on motivation or the control of behavior by ethanol could be assessed.
Methods: Study the effects of Example 2 on female, alcohol-preferring (P) rats on alcohol consumption under a continuous free access paradigm. For comparative purposes test the standard opioid antagonist naltrexone. Monitor voluntary consumption of 15% (v/v) ethanol. Suspend Example 2 in vehicle (1% CMC, 0.5% SLS, 0.08% povidone, 0.05% Dow Corning antifoam 1510 US) and give p.o. 3 hours prior to the onset of the dark cycle. In addition, measure locomotor activity via infrared sensor.

[2] = Bioavailability, dog; settings: in vivo
Excerpt: (§1) Methods for accessing bioavailability are well appreciated in the art. One such reference is Medicinal Research Reviews Vol. 21 No. 5 382-396 (2001).

[3] = tested on: NIH male Swiss mice; assay: Forced Swim Test (FST); format: in vivo, mouse; settings: 90 minute pre-treatment, lowest dose with significant decrease in immobility time
Procedure: Receive NIH male Swiss mice (Harlan Sprague-Dawley, weight 20-25 g) 7 to 10 days prior to testing. House 12 mice per cage. Test only animals that weigh 25-30 g. On the day of testing, bring animals to the testing room at least 1 hour prior to dosing. When dosing starts, dose at 6-8 minute intervals between each dose with each mouse receiving either Administer vehicle (1% CMC, 0.5% SLS, 0.08% povidone, 0.05% antifoam) or Example 2, p.o. Next, place mice in a clean cage (4 mice per cage). After 90 minutes, start the test following a 90 minute pre-treatment with Example 2 or vehicle.
Mice FST: Place NIH-Swiss mice in clear plastic cylinders (diameter: 10 cm; height: 25 cm) filled to 6 cm with 22-25° C. water for six minutes. Record the duration of immobility during the last 4 minutes of the six-minute trial. A mouse is regarded as immobile when floating motionless or making only those movements necessary to keep its head above the water. Analyze data by ANOVA with a post-hoc Dunnett's test (alpha=0.05; JMP). Record the minimum effective dose (MED) as the lowest dose of compound at which statistically significant decrease in immobility time is observed versus a vehicle control.

[4] = Bioavailability, rat; settings: in vivo
Excerpt: as §1

[5] = target: T1, human CB2 receptor (Homo sapiens, UniProt P34972); assay: Antibody-capture SPA GTP-γ-35S binding, antagonist/inverse agonist mode, human CB2 (Sf9 membranes); format: biochemical; settings: Table 3
T1 construct: purchased Applied Cell Sciences, Gaithersburg, Md; PerkinElmer Life Sciences, Boston, Mass; host or cells: Sf9 insect cells (recombinant expression), membranes
T1 sequence (P34972 whole entry): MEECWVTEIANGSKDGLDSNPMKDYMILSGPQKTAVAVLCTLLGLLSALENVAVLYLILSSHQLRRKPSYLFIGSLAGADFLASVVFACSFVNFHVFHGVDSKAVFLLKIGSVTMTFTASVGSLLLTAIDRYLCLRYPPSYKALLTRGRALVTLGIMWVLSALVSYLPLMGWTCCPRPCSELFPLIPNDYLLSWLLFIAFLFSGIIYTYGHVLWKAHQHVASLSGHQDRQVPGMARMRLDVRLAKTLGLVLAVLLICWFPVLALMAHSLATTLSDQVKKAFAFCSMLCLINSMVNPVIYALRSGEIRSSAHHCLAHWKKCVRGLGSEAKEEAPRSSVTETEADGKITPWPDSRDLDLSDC

[6] = target: hCB1 (Homo sapiens, UniProt P21554); assay: hCB1 SPA GTPγ35S Sf9 membranes, antagonist mode (Table 3); format: biochemical; parameters: purchased Applied Cell Sciences, Gaithersburg, Md; PerkinElmer Life Sciences, Boston, Mass; host or cells: Sf9 insect cells (recombinant expression), membranes; settings: hCB1 SPA GTPγ35S Sf9 Mem 22.7 ug protein/well Antagonist; read-out: Inverse Agonist Potency CB1 (Kb)
Sequence of hCB1 (P21554 whole entry): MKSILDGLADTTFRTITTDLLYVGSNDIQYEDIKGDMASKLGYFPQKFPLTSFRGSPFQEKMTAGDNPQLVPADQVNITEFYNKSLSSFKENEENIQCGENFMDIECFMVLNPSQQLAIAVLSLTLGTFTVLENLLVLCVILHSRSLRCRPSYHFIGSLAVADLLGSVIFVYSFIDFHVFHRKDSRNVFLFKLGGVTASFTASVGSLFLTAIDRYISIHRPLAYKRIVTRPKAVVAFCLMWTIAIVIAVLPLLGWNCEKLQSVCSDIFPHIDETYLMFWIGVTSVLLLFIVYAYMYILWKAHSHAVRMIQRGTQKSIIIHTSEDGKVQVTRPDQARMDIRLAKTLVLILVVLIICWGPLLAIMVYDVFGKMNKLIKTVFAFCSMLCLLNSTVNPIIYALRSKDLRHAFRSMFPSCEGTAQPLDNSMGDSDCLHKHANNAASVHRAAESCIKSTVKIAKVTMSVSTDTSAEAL

Inverse Agonist Potency CB2 (Kb, nM) [5]	Kb [6] [nM]	SMILES	other results
–	–	O=C1CC[C@@]2(O)[C@H]3Cc4ccc(O)c5c4[C@@]2(CCN3CC2CC2)[C@H]1O5 [Naltrexone, naltrexone, reference compound]	consumption of ethanol [1]: at higher doses, was also able to reduce ethanol intake
No measurable activity	–	CC(C)(N[C@@H]1C[C@H](c2cccc(OC(F)(F)F)c2)N(c2ccc(C(F)(F)F)cc2)C1=O)c1ccc(C(F)(F)F)nc1.Cc1ccc(S(=O)(=O)O)cc1 [drawing 21]	bioavailability [2]: 60%; FST (MED mg/kg p.o.) [3]: 1 mg/kg; bioavailability [4]: 65%
No measurable activity	–	CC(C)(N[C@@H]1C[C@H](c2cccc(OC(F)(F)F)c2)N(c2ccc(C(F)(F)F)cc2)C1=O)c1ccc(C(F)(F)F)nc1.Cl [drawing 22]	–
No measurable activity	3	CC(C)(N[C@H]1C[C@H](c2cccc(OC(F)(F)F)c2)N(c2ccc(C(F)(F)F)cc2)C1=O)c1ccc(C(F)(F)F)nc1.Cc1ccc(S(=O)(=O)O)cc1 [drawing 23]	–
No measurable activity	8.8	CC(C)(N[C@H]1C[C@H](c2cccc(OC(F)(F)F)c2)N(c2ccc(C(F)(F)F)cc2)C1=O)c1ccc(C(F)(F)F)nc1.Cl [drawing 24]	–
